{"source": "the supplement of paper PMC10307832", "test_in_all_cases": "relative viability (nuclei count vs DMSO), 5 days (fraction); higher = more cells survive", "key": {"Idelalisib + Linsitinib": {"compound": "CC[C@H](Nc1ncnc2[nH]cnc12)c1nc2cccc(F)c2c(=O)n1-c1ccccc1 [Idelalisib] + C[C@]1(O)C[C@@H](c2nc(-c3ccc4ccc(-c5ccccc5)nc4c3)c3c(N)nccn32)C1 [Linsitinib] (partner 1 µM)", "in_short": "(§1)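 One day after seeding in 1536-well plates, lung cancer cell lines were dosed by pin tool. Dosing was either single-drug or a fixed anchor-drug dose plus five library-drug doses (not always all listed) in √10 steps. After 5 days, nuclei were stained in one fix-and-stain step and counted on 4× images, and relative viability is the nuclei count of treated wells over that of vehicle wells, given as the median of duplicate plates.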"}, "Idelalisib + Bortezomib": {"compound": "CC[C@H](Nc1ncnc2[nH]cnc12)c1nc2cccc(F)c2c(=O)n1-c1ccccc1 [Idelalisib] + CC(C)C[C@H](NC(=O)[C@H](Cc1ccccc1)NC(=O)c1cnccn1)B(O)O [Bortezomib] (partner 0.002 µM)", "in_short": "as §1"}, "Pemetrexed + Lapatinib": {"compound": "Nc1nc2[nH]cc(CCc3ccc(C(=O)N[C@@H](CCC(=O)O)C(=O)O)cc3)c2c(=O)[nH]1 [Pemetrexed] + CS(=O)(=O)CCNCc1ccc(-c2ccc3ncnc(Nc4ccc(OCc5cccc(F)c5)c(Cl)c4)c3c2)o1 [Lapatinib] (partner 2 µM)", "in_short": "as §1"}, "Pemetrexed + Crizotinib": {"compound": "Nc1nc2[nH]cc(CCc3ccc(C(=O)N[C@@H](CCC(=O)O)C(=O)O)cc3)c2c(=O)[nH]1 [Pemetrexed] + C[C@@H](Oc1cc(-c2cnn(C3CCNCC3)c2)cnc1N)c1c(Cl)ccc(F)c1Cl [Crizotinib] (partner 1 µM)", "in_short": "as §1"}}, "data": [{"cell line": "UMC-11", "values": [{"measurement": "relative viability", "setting": "Idelalisib + Linsitinib; first compound 0.04 µM", "result": 0.912}, {"measurement": "relative viability", "setting": "Idelalisib + Linsitinib; first compound 0.1265 µM", "result": 1.02}, {"measurement": "relative viability", "setting": "Idelalisib + Linsitinib; first compound 0.4 µM", "result": 0.966}, {"measurement": "relative viability", "setting": "Idelalisib + Linsitinib; first compound 1.265 µM", "result": 1.01}, {"measurement": "relative viability", "setting": "Idelalisib + Linsitinib; first compound 4 µM", "result": 1.06}, {"measurement": "relative viability", "setting": "Idelalisib + Bortezomib; first compound 0.04 µM", "result": 0.477}, {"measurement": "relative viability", "setting": "Idelalisib + Bortezomib; first compound 0.1265 µM", "result": 0.858}, {"measurement": "relative viability", "setting": "Idelalisib + Bortezomib; first compound 0.4 µM", "result": 0.744}, {"measurement": "relative viability", "setting": "Idelalisib + Bortezomib; first compound 1.265 µM", "result": 0.771}, {"measurement": "relative viability", "setting": "Idelalisib + Bortezomib; first compound 4 µM", "result": 0.521}, {"measurement": "relative viability", "setting": "Pemetrexed + Lapatinib; first compound 0.002 µM", "result": 1.24}, {"measurement": "relative viability", "setting": "Pemetrexed + Lapatinib; first compound 0.006325 µM", "result": 0.952}, {"measurement": "relative viability", "setting": "Pemetrexed + Lapatinib; first compound 0.02 µM", "result": 1.11}, {"measurement": "relative viability", "setting": "Pemetrexed + Lapatinib; first compound 0.06325 µM", "result": 1.05}, {"measurement": "relative viability", "setting": "Pemetrexed + Lapatinib; first compound 0.2 µM", "result": 0.746}, {"measurement": "relative viability", "setting": "Pemetrexed + Crizotinib; first compound 0.002 µM", "result": 0.603}, {"measurement": "relative viability", "setting": "Pemetrexed + Crizotinib; first compound 0.006325 µM", "result": 0.635}, {"measurement": "relative viability", "setting": "Pemetrexed + Crizotinib; first compound 0.02 µM", "result": 0.666}, {"measurement": "relative viability", "setting": "Pemetrexed + Crizotinib; first compound 0.06325 µM", "result": 0.715}, {"measurement": "relative viability", "setting": "Pemetrexed + Crizotinib; first compound 0.2 µM", "result": 0.566}]}]}
